Results published in US20260007634A1, “PHARMACEUTICAL COMPOSITIONS FOR THE TREATMENT OF ALLERGIC DISEASES” (KINKI UNIVERSITY, priority 2022, published 2026).

Key:
Th17 cells = assay: Th17 cell activation in inflammation-induced mouse model (IL-17A flow cytometry); format: in vivo; conditions: DBA/1J mice, Freund's complete adjuvant + bovine type2 collagen; oral 10 mg/kg daily 20 days; thymus cells; vs vehicle group
Experimental: Equal volume mixtures of Freund's complete adjuvant and Bovine type2 collagen were administered to 6-week-old male DBA/1J mice (Japan SLC Inc.) at 0.1 mL (day 0 of the study). 21 days later, DBA/1J mice were again injected with 0.1 mL of the above mixture for secondary immunization. After the second immunization, mice were orally treated with 10 mg/kg of mangiferin 8a and 10 mg/kg of norathyriol daily for 20 days. 20 days later, thymus glands were harvested from mice and stained with anti-CD4 and anti-IL-17A antibodies, which are Th17 cell markers, and expression of IL-17A (CD4 positive) was measured using BD LSRFortessa.

[1] = test system: Balb/c mice with ovalbumin-induced food allergy; assay: Frequency of diarrhea, ovalbumin-induced food allergy mice; format: in vivo, mouse; conditions: OVA food allergy; oral daily 14 days from day 14, 10 mg/kg (dexamethasone 2 mg/kg); measured day 28; vs vehicle group
Experimental: A 0.2 mL dose of 10 μg ovalbumin (OVA) and 1 mg Alum mixture was administered to 6-week-old female Balb/c mice (Japan SLC Inc.) (day 0 of the example). Alum was used as an adjuvant. Seven days later, the Balb/c mice were immunized again with a 0.2 mL injection of the above mixture. Starting on day 14, mice were orally treated with 10 mg/kg of norathyriol, 10 mg/kg of mangiferin 8a, 10 mg/kg of tofacitinib (JAK inhibitor), 2 mg/kg of dexamethasone (steroid) and 10 mg/kg of olopatadine (antihistamine) daily for 14 consecutive days. Starting on day 14, 10 mg OVA was administered orally every other day […], and the frequency of diarrhea was measured after the final administration on day 28. Note that tofacitinib, dexamethasone, and olopatadine are currently in clinical use in food allergy and were used as control drugs in this example.
The group that was just immunized with OVA is called the subject group, the one that received norathyriol is called the norathyriol group, the one that received mangiferin 8a is called the mangiferin 8a group, the one that received tofacitinib is called the tofacitinib group, the one that received dexamethasone is called the dexamethasone group, and the one that received olopatadine is called the olopatadine group. Each group consisted of five animals.

NIK = target: T1, NIK (Mus musculus, UniProt Q9WUL6); assay: LPS-induced NIK activation in B cells (Western blotting, phospho-NIK); format: cell-based; conditions: 10 μM compound 23 h, then 10 μg/mL LPS 1 h
T1 construct: Proteins were extracted with cell lysate and used as samples; endogenous in cells; host or cells: primary splenic B cells from 6-week-old male Balb/c mice
Experimental: (§1) Spleens were harvested from 6-week-old male Balb/c mice and B cells were isolated. After isolation, the cells were seeded in […] dish and cultured in RPMI 1640 medium for 1 day and used as control. In addition, B cells were seeded into 100 mm^2 dish, and after 1 day of culture, 10 μg/mL LPS was added and cultured for 1 h. Furthermore, B cells were seeded in […] dish, and after 1 day of culture, 10 μM mangiferin 8a and 10 μM norathyriol were added to B cells, and after 23 h, 10 μg/mL LPS was added to each, and the cells were incubated for 1 h. All were incubated at 37° C. and 5% CO2.
(§2) Proteins were extracted with cell lysate and used as samples. Each sample was transferred to a PVDF membrane after SDSPAGE and assayed with anti-phospho-NIK, anti-NIK, anti-NF-κB p52, anti-NF-κB p65 and anti-Lamin antibodies.
(§3) The antibody species is indicated in the vertical direction. Specifically, in the case of anti-phospho-NIK antibody (described as “Phospho-NIK”), anti-NIK antibody (described as “NIK”), anti-NF-κB p52 antibody (described as “NF-κB p52 nuclear”), anti-NF-κB p65 antibody (described as “NF-κB p65 nuclear”) and anti-Lamin antibody (described as “Lamin”).

NF-κB p52 = assay: LPS-stimulated B cells, nuclear NF-κB p52 (Western blotting); format: cell-based, mouse; conditions: 10 μM compound; vs 10 μg/mL LPS
Experimental: as §1, §2, §3

[2] = test system: Balb/c mice with atopic dermatitis (MC903 applied to the auricle); assay: Auricular swelling in MC903-induced atopic dermatitis mice; format: in vivo, mouse
Experimental: (§4) MC903 at 2 nM was applied to the right auricle of a 6-week-old male Balb/c (Japan SLC Inc.). Starting 8 h later, 5% norathyriol aqueous solution (1 mL of ethanol containing […] of norathyriol), betamethasone ointment, and delgocitinib ointment were applied to the auricle for 7 days. The measurement of auricular skin swelling was calculated by calipers. The day on which the first application of the compound was made was defined as day 0. Betamethasone and delgocitinib are currently in clinical use in atopic dermatitis and were used as control drugs in this example.
Those without MC903 or norathyriol are called the control group, those with MC903 are called the vehicle group, those with 5% norathyriol aqueous are called the 5% norathyriol-applied group, those with betamethasone ointment are called the betamethasone-applied group, and those with delgocitinib ointment is referred to as the delgocitinib-applied group.
Solid white circles indicate the control group (labeled “control”). Solid black squares indicate the vehicle group (labeled “vehicle”), dotted black diamonds indicate the 5% norathyriol aqueous application group (labeled “MC903+5% norathyriol”), dashed black crosses indicate the betamethasone application group (labeled “MC903+betamethasone ointment”), and single-dotted black dots indicate the delgocitinib application group (labeled “MC903+delgocitinib ointment”).

[3] = test system: B cells collected from mice; assay: LPS-induced differentiation into plasma cells (CD138 flow cytometry); format: cell-based, mouse; conditions: 10 μM compound, 10 μg/mL LPS, 10 days; vs LPS-added group
Experimental: B cells collected from mice were cultured in RPMI 1640 medium for 1 day. Then, 10 μM mangiferin 8a and 10 μM norathyriol were added to B cell, and after 1 day of culture, 10 μg/mL of LPS was added, followed by 10 days of culture. After 10 days of culture, cells were stained with anti-CD138 antibody, a marker of plasma cells, and CD138 expression was measured using BD LSRFortessa.

IgE antibody = assay: Serum IgE antibody ELISA, atopic dermatitis mice; format: in vivo, mouse; conditions: day 7, topical application, control 1214, vehicle (MC903) 2588
Experimental: as §4
Serum was collected from mice on day 7 in Example 1, and IgE antibody production was measured by enzyme-linked immunosorbent assay (ELISA). This assay was performed using a mouse IgE antibody ELISA kit (R&D).

T1 sequence (Q9WUL6 whole entry): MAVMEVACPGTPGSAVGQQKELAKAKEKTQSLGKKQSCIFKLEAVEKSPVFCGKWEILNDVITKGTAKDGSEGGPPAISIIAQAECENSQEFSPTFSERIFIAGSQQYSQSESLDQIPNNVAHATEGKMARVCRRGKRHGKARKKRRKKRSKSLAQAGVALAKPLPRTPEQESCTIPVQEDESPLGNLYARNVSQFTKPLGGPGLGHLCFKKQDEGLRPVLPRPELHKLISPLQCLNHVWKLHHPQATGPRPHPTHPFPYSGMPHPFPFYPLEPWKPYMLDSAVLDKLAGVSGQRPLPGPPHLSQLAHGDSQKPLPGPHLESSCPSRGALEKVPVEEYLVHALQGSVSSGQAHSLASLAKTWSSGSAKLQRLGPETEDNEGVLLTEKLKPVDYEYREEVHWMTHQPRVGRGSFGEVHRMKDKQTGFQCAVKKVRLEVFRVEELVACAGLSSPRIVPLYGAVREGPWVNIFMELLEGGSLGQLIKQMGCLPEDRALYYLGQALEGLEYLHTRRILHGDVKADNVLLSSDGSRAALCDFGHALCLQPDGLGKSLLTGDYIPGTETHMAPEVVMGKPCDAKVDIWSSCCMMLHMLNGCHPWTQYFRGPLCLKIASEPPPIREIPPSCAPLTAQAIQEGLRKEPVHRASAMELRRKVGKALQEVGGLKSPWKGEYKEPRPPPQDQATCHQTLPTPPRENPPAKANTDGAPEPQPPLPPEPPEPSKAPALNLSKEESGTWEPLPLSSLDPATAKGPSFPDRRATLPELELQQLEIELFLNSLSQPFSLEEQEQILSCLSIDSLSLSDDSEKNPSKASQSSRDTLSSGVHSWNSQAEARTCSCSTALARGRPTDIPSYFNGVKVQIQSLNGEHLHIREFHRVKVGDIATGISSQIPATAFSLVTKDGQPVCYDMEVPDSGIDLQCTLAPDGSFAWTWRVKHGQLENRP

phospho-NIK band (immunoblotting) (NIK): fainter
SMILES: O=c1c2cc(O)c(O)cc2oc2cc(O)cc(O)c12 [norathyriol, 1,3,6,7-tetrahydroxyxanthone]
IL-17A expression (CD4 positive) (Th17 cells): markedly reduced
frequency of diarrhea [1]: showed a marked decrease in the frequency of diarrhea
nuclear NF-κB p52 band (immunoblotting) (NF-κB p52): fainter
auricular skin swelling ([2]; male Balb/c, MC903 on right auricle, 5% norathyriol aqueous solution, betamethasone ointment or delgocitinib ointment applied to auricle for 7 days, vs vehicle group): swelling was significantly reduced
swelling and redness of auricular skin (photograph) ([2]; right auricle at day 7, topical 5% norathyriol aqueous, betamethasone ointment, delgocitinib ointment): showed some redness, but not as much as in the target group
CD138 expression [3]: significantly decreased CD138 expression
amount of IgE antibody (IgE antibody): 1692 ng/mL
